Literature values as cited in patent US20260218136A1, “R[…], COMPOSITIONS, AND METHODS OF USE” (priority 2022, published 2026).

Conditions: target and test not given; stated in the description of the rapalog bridging factor

SMILES: CO[C@H]1[C@@H](O)[C@H](C)C[C@H](C)/C=C/C=C/C=C(\C)[C@@H](c2c[nH]c3c(C)cccc23)C[C@@H]2CC[C@@H](C)[C@@](O)(O2)C(=O)C(=O)N2CCCC[C@H]2C(=O)O[C@H]([C@H](C)C[C@@H]2CC[C@@H](O)[C@H](OC)C2)C[C@H](O)[C@H](C)/C=C(\C)[C@H]1O [AP21967, C-16-(S)-7-methylindolerapamycin]
- IC50: 0.01 µM
